Measurements as given in ChEMBL document CHEMBL3045332, “Synthesis of some new 2,6-disubstituted-3(2H)-pyridazinone derivatives and investigation of their analgesic, anti-inflammatory and antimicrobial activities” (Med Chem Res, 2013).
≈ marks a conversion by molar mass, not a printed value.

Key:
[1] = test system: Pseudomonas aeruginosa; assay: Antibacterial activity against Pseudomonas aeruginosa cloinical isolate after 24 hr by two-fold serial dilution method; assay type: functional
[2] = test system: Enterococcus faecalis; assay: Antibacterial activity against Enterococcus faecalis ATCC 29212 after 24 hr by two-fold serial dilution method; assay type: functional; details: ATCC 29212, 24 h
[3] = test system: Escherichia coli; assay: Antibacterial activity against Escherichia coli ATCC 25922 after 24 hr by two-fold serial dilution method; assay type: functional; details: ATCC 25922, 24 h
[4] = test system: Staphylococcus aureus; assay: Antibacterial activity against Staphylococcus aureus ATCC 29213 after 24 hr by two-fold serial dilution method; assay type: functional; details: ATCC 29213, 24 h
[5] = test system: Candida albicans; assay: Antifungal activity against Candida albicans ATCC 10231 after 48 hr by two-fold serial dilution method; assay type: functional; details: ATCC 10231, 48 h
[6] = test system: Enterococcus faecalis; assay: Antibacterial activity against Enterococcus faecalis clinical isolate after 24 hr by two-fold serial dilution method; assay type: functional
[7] = test system: Mus musculus; assay: Anti-inflammatory activity in Swiss albino Mus musculus (mouse) assessed as inhibition of carrageenan-induced paw edema at 100 mg/kg, po administered 60 min prior to crrageenan-challenge measured at 180 min relative to control; assay type: functional
[8] = test system: Escherichia coli; assay: Antibacterial activity against Escherichia coli clinical isolate expressing extended spectrum beta-lactamase after 24 hr by two-fold serial dilution method; assay type: functional
[9] = test system: Staphylococcus aureus; assay: Antibacterial activity against methicillin-resistant Staphylococcus aureus clinical isolate after 24 hr by two-fold serial dilution method; assay type: functional
[10] = test system: Mus musculus; assay: Anti-inflammatory activity in Swiss albino Mus musculus (mouse) assessed as inhibition of carrageenan-induced paw edema at 100 mg/kg, po administered 60 min prior to crrageenan-challenge measured at 360 min relative to control; assay type: functional
[11] = test system: Pichia kudriavzevii; assay: Antifungal activity against Pichia kudriavzevii ATCC 6258 after 48 hr by two-fold serial dilution method; assay type: functional; details: ATCC 6258, 48 h
[12] = test system: Mus musculus; assay: Analgesic activity in Swiss albino Mus musculus (mouse) assessed as inhibition of p-benzoquinone-induced writhing at 100 mg/kg, po administered 60 min prior to p-benzoquinone-challenge measured up to 15 min relative to control; assay type: functional
[13] = test system: Mus musculus; assay: Anti-inflammatory activity in Swiss albino Mus musculus (mouse) assessed as inhibition of carrageenan-induced paw edema at 100 mg/kg, po administered 60 min prior to crrageenan-challenge measured at 90 min relative to control; assay type: functional
[14] = test system: Pseudomonas aeruginosa; assay: Antibacterial activity against Pseudomonas aeruginosa ATCC 27853 after 24 hr by two-fold serial dilution method; assay type: functional; details: ATCC 27853, 24 h
[15] = test system: Mus musculus; assay: Anti-inflammatory activity in Swiss albino Mus musculus (mouse) assessed as inhibition of carrageenan-induced paw edema at 100 mg/kg, po administered 60 min prior to crrageenan-challenge measured at 270 min relative to control; assay type: functional
[16] = test system: Mus musculus; assay: Ulcerogenic activity in p-benzoquinone-challenged Swiss albino Mus musculus (mouse) at 100 mg/kg, po administered 60 min prior to p-benzoquinone-challenge by microscopic analysis; assay type: toxicity, organism-based; design: dose 100 mg/kg, route oral; details: in vivo, 1 h
[17] = test system: Mus musculus; assay: Anti-inflammatory activity in Swiss albino Mus musculus (mouse) assessed as inhibition of carrageenan-induced paw edema at 10 mg/kg, po administered 60 min prior to crrageenan-challenge measured at 180 min relative to control; assay type: functional
[18] = test system: Mus musculus; assay: Anti-inflammatory activity in Swiss albino Mus musculus (mouse) assessed as inhibition of carrageenan-induced paw edema at 10 mg/kg, po administered 60 min prior to crrageenan-challenge measured at 360 min relative to control; assay type: functional
[19] = test system: Mus musculus; assay: Anti-inflammatory activity in Swiss albino Mus musculus (mouse) assessed as inhibition of carrageenan-induced paw edema at 10 mg/kg, po administered 60 min prior to crrageenan-challenge measured at 90 min relative to control; assay type: functional
[20] = test system: Mus musculus; assay: Anti-inflammatory activity in Swiss albino Mus musculus (mouse) assessed as inhibition of carrageenan-induced paw edema at 10 mg/kg, po administered 60 min prior to crrageenan-challenge measured at 270 min relative to control; assay type: functional

Row | Structure (SMILES) | MIC [1] | MIC [2] | MIC [3] | MIC [4] | MIC [5] | MIC [6] | inhibition in vivo at 100 mg/kg [7] | MIC [8] | MIC [9] | inhibition in vivo at 100 mg/kg [10] | MIC [11] | inhibition in vivo at 100 mg/kg [12] | inhibition in vivo at 100 mg/kg [13] | MIC [14] | inhibition in vivo at 100 mg/kg [15] | Activity [16] | inhibition in vivo at 10 mg/kg [17] | inhibition in vivo at 10 mg/kg [18] | inhibition in vivo at 10 mg/kg [19] | inhibition in vivo at 10 mg/kg [20]
1 | O=c1ccc(-c2ccc(Cl)cc2)nn1CCN1CCN(c2ccc(Cl)cc2)CC1 | 64 µg/mL (≈ 149 µM) | 64 µg/mL (≈ 149 µM) | 64 µg/mL (≈ 149 µM) | 64 µg/mL (≈ 149 µM) | 32 µg/mL (≈ 74.5 µM) | 64 µg/mL (≈ 149 µM) | 29.7% | 64 µg/mL (≈ 149 µM) | 128 µg/mL (≈ 298 µM) | 28.2% | 32 µg/mL (≈ 74.5 µM) | 53.2% | 20.6% | 64 µg/mL (≈ 149 µM) | 31% | Non-toxic |  |  |  | 
2 | O=c1ccc(-c2ccc(Cl)cc2)nn1CCN1CCN(c2ccc(F)cc2)CC1 | 64 µg/mL (≈ 155 µM) | 64 µg/mL (≈ 155 µM) | 64 µg/mL (≈ 155 µM) | 64 µg/mL (≈ 155 µM) | 32 µg/mL (≈ 77.5 µM) | 64 µg/mL (≈ 155 µM) | 28.3% | 64 µg/mL (≈ 155 µM) | 128 µg/mL (≈ 310 µM) | 28.8% | 32 µg/mL (≈ 77.5 µM) | 57.5% | 29.5% | 64 µg/mL (≈ 155 µM) | 35.3% | Non-toxic |  |  |  | 
3 | COc1ccc(N2CCN(CCn3nc(-c4ccc(Cl)cc4)ccc3=O)CC2)cc1 | 64 µg/mL (≈ 151 µM) | 64 µg/mL (≈ 151 µM) | 64 µg/mL (≈ 151 µM) | 64 µg/mL (≈ 151 µM) | 32 µg/mL (≈ 75.3 µM) | 64 µg/mL (≈ 151 µM) | 12.3% | 64 µg/mL (≈ 151 µM) | 128 µg/mL (≈ 301 µM) | 15.5% | 32 µg/mL (≈ 75.3 µM) | 30.2% | 4.7% | 64 µg/mL (≈ 151 µM) | 18.5% | Non-toxic |  |  |  | 
4 | C[C@@H]1[C@H](O)[C@@H](C)/C=C/C=C/C=C/C=C/C=C/C=C/C=C/[C@H](O[C@@H]2O[C@H](C)[C@@H](O)[C@H](N)[C@@H]2O)C[C@@H]2O[C@](O)(C[C@@H](O)C[C@@H](O)[C@H](O)CC[C@@H](O)C[C@@H](O)CC(=O)O[C@H]1C)C[C@H](O)[C@H]2C(=O)O [AMPHOTERICIN B] |  |  |  |  | < 0.25 µg/mL |  |  |  |  |  | 0.5 µg/mL (≈ 0.541 µM) |  |  |  |  |  |  |  |  | 
5 | CC1(C)S[C@@H]2[C@H](NC(=O)[C@H](N)c3ccccc3)C(=O)N2[C@H]1C(=O)O [AMPICILLIN] |  | 2 µg/mL (≈ 5.72 µM) | 8 µg/mL (≈ 22.9 µM) | 2 µg/mL (≈ 5.72 µM) |  | 4 µg/mL (≈ 11.4 µM) |  | 64 µg/mL (≈ 183 µM) | 32 µg/mL (≈ 91.6 µM) |  |  |  |  |  |  |  |  |  |  | 
6 | CC(=O)Oc1ccccc1C(=O)O [ASPIRIN] |  |  |  |  |  |  |  |  |  |  |  | 45.9% |  |  |  | Toxic |  |  |  | 
7 | OC(Cn1cncn1)(Cn1cncn1)c1ccc(F)cc1F [FLUCONAZOLE] |  |  |  |  | 1 µg/mL (≈ 3.27 µM) |  |  |  |  |  | 64 µg/mL (≈ 209 µM) |  |  |  |  |  |  |  |  | 
8 | COc1ccc2c(c1)c(CC(=O)O)c(C)n2C(=O)c1ccc(Cl)cc1 [INDOMETHACIN] |  |  |  |  |  |  |  |  |  |  |  |  |  |  |  |  | 36.9% | 39.4% | 25.3% | 37.6%
9 | CC1COc2c(N3CCN(C)CC3)c(F)cc3c(=O)c(C(=O)O)cn1c23 (stereo not given) [OFLOXACIN] | 32 µg/mL (≈ 88.6 µM) | 1 µg/mL (≈ 2.77 µM) |  | 0.5 µg/mL (≈ 1.38 µM) |  | 2 µg/mL (≈ 5.53 µM) |  | 16 µg/mL (≈ 44.3 µM) | 2 µg/mL (≈ 5.53 µM) |  |  |  |  |  |  |  |  |  |  | 
